PubChem BioAssay AID248 (DTP/NCI, 2004)
Several values for one entry are separate records, joined by “and”; a condition that tells them apart may be missing. Identical values can stand only once. Toxic doses and inconclusive results are not listed. Rule as the data show it: active = T/C of 150% or more; inactive = T/C below 125%.

Tested on: L1210 leukemia ip in BDF1 mice, survival T/C
Experiment: NCI In Vivo Anticancer Drug Screen. Data for tumor model L1210 Leukemia (intraperitoneal) in B6D2F1 (BDF1) mice
Conditions: endpoint: mean survival time, higher = longer survival
Outline: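 Tumor cells were implanted, animals were treated, and survival was followed. The result divides the treated measurement by the vehicle-control measurement.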

[1] = dose: 100.0 mg/kg/injection, schedule: Q04DX003 (ip), vehicle: saline
[2] = dose: 200.0 mg/kg/injection, schedule: Q04DX003 (ip), vehicle: saline
[3] = dose: 400.0 mg/kg/injection, schedule: Q04DX003 (ip), vehicle: saline
[4] = dose: 12.5 mg/kg/injection, schedule: Q01DX009 (ip), vehicle: Klucel (hydroxypropylcellulose) (HPC)
[5] = dose: 25.0 mg/kg/injection, schedule: Q01DX009 (ip), vehicle: Klucel (hydroxypropylcellulose) (HPC)
[6] = dose: 50.0 mg/kg/injection, schedule: Q01DX009 (ip), vehicle: Klucel (hydroxypropylcellulose) (HPC)
[7] = dose: 50.0 mg/kg/injection, schedule: Q01DX001 (ip), vehicle: carboxymethylcellulose (CMC)
[8] = dose: 100.0 mg/kg/injection, schedule: Q01DX001 (ip), vehicle: carboxymethylcellulose (CMC)
[9] = dose: 200.0 mg/kg/injection, schedule: Q01DX001 (ip), vehicle: carboxymethylcellulose (CMC)
[10] = dose: 400.0 mg/kg/injection, schedule: Q01DX001 (ip), vehicle: carboxymethylcellulose (CMC)
[11] = dose: 100.0 mg/kg/injection, schedule: Q04DX002 (ip), vehicle: saline with Tween-80
[12] = dose: 200.0 mg/kg/injection, schedule: Q04DX002 (ip), vehicle: saline with Tween-80
[13] = dose: 400.0 mg/kg/injection, schedule: Q04DX002 (ip), vehicle: saline with Tween-80
[14] = dose: 100.0 mg/kg/injection, schedule: Q01DX001 (ip), vehicle: saline
[15] = dose: 200.0 mg/kg/injection, schedule: Q01DX001 (ip), vehicle: saline
[16] = dose: 400.0 mg/kg/injection, schedule: Q01DX001 (ip), vehicle: saline
[17] = dose: 100.0 mg/kg/injection, schedule: Q01DX001 (ip), vehicle: Klucel (hydroxypropylcellulose) (HPC)
[18] = dose: 200.0 mg/kg/injection, schedule: Q01DX001 (ip), vehicle: Klucel (hydroxypropylcellulose) (HPC)
[19] = dose: 400.0 mg/kg/injection, schedule: Q01DX001 (ip), vehicle: Klucel (hydroxypropylcellulose) (HPC)
[20] = dose: 200.0 mg/kg/injection, schedule: Q04DX002 (ip), vehicle: Klucel (hydroxypropylcellulose) (HPC)
[21] = dose: 100.0 mg/kg/injection, schedule: Q01DX009 (ip), vehicle: Klucel (hydroxypropylcellulose) (HPC)

Measured: T/C

CCN(CC)C(=O)C1CN2CCc3cc(OC)c(OC)cc3C2CC1O (centres undefined)
inactive: dose: 25.0 mg/kg/injection, schedule: Q01DX009 (ip), vehicle: saline 97 % of control | dose: 25.0 mg/kg/injection, schedule: Q04DX003 (ip), vehicle: saline 108 % of control | dose: 50.0 mg/kg/injection, schedule: Q01DX009 (ip), vehicle: saline 105 % of control | dose: 50.0 mg/kg/injection, schedule: Q04DX003 (ip), vehicle: saline 105 % of control | dose: 100.0 mg/kg/injection, schedule: Q01DX009 (ip), vehicle: saline 103 % of control | [1] 97 % of control | dose: 200.0 mg/kg/injection, schedule: Q01DX009 (ip), vehicle: saline 118 % of control | [2] 110 % of control | dose: 400.0 mg/kg/injection, schedule: Q01DX009 (ip), vehicle: saline 115 % of control | [3] 105 % of control

Cc1ccc(NC(=O)Oc2cccnc2)cc1
inactive: [4] 107 % of control | [5] 107 % of control | [6] 96 % of control

O=C(CS(=O)(=O)O)Nc1ccccc1 (tested in a mixture with another compound)
inactive: dose: 100.0 mg/kg/injection, schedule: Q01DX001 (ip), vehicle: saline with Tween-80 93 % of control | dose: 200.0 mg/kg/injection, schedule: Q01DX001 (ip), vehicle: saline with Tween-80 103 % of control | dose: 400.0 mg/kg/injection, schedule: Q01DX001 (ip), vehicle: saline with Tween-80 90 % of control

COc1ccc(Cl)cc1/C=C\C=N\NC(=O)C[N+](C)(C)C
inactive: dose: 15.0 mg/kg/injection, schedule: Q01DX001 (ip), vehicle: carboxymethylcellulose (CMC) 95 % of control | dose: 30.0 mg/kg/injection, schedule: Q01DX001 (ip), vehicle: carboxymethylcellulose (CMC) 93 % of control

COCC(C)CNC(=S)Nc1ccccc1 (centres undefined)
inactive: [7] 108 % of control | [8] 103 % of control | [9] 103 % of control | [10] 105 % of control

CCCCCc1cc(O)c2c3c(c(=O)oc2c1)CCC(=O)C3
inactive: [8] 97 % of control | [9] 100 % of control | [10] 97 % of control

CCCCCCCCCCCOP(=O)(OCC)OCC
inactive: [11] 95 % of control | [12] 95 % of control | [13] 106 % of control

COc1ccccc1CC(=O)O
inactive: [14] 100 % of control | dose: 100.0 mg/kg/injection, schedule: Q04DX003 (ip), vehicle: saline with Tween-80 101 % of control | [15] 103 % of control | dose: 200.0 mg/kg/injection, schedule: Q04DX003 (ip), vehicle: saline with Tween-80 105 % of control | [16] 108 % of control | dose: 400.0 mg/kg/injection, schedule: Q04DX003 (ip), vehicle: saline with Tween-80 101 % of control

C1COCOC1
inactive: dose: 50.0 mg/kg/injection, schedule: Q01DX009 (ip), vehicle: acetone 109 % of control | dose: 100.0 mg/kg/injection, schedule: Q01DX009 (ip), vehicle: acetone 106 % of control | dose: 200.0 mg/kg/injection, schedule: Q01DX009 (ip), vehicle: acetone 119 % of control

CC(C)(C)CC(C)(C)c1ccc(OCCOCCSC(=N)N)cc1
inactive: [7] 93 % of control | [8] 98 % of control

CS(=O)(=O)O/C=C(\C#N)C(=O)O
inactive: [8] 103 % of control | [9] 106 % of control

CN(c1ccccc1)S(=O)(=O)c1ccc(N)cc1
inactive: [17] 96 % of control | [18] 104 % of control | [19] 102 % of control

OCCN1CCN(CCCN2c3ccccc3Sc3ccc(Cl)cc32)CC1
inactive: dose: 6.25 mg/kg/injection, schedule: Q01DX001 (ip), vehicle: Klucel (hydroxypropylcellulose) (HPC) 97 % of control | dose: 12.5 mg/kg/injection, schedule: Q01DX001 (ip), vehicle: Klucel (hydroxypropylcellulose) (HPC) 105 % of control | dose: 25.0 mg/kg/injection, schedule: Q01DX001 (ip), vehicle: Klucel (hydroxypropylcellulose) (HPC) 111 % of control | [20] 108 % of control

O=S(=O)(c1cc(Br)ccc1O)c1cc(Br)ccc1O
inactive: [14] 97 % of control | dose: 100.0 mg/kg/injection, schedule: Q04DX002 (ip), vehicle: gum acacia 93 % of control | [15] 95 % of control | dose: 200.0 mg/kg/injection, schedule: Q04DX002 (ip), vehicle: gum acacia 93 % of control | [16] 103 % of control | dose: 400.0 mg/kg/injection, schedule: Q04DX002 (ip), vehicle: gum acacia 93 % of control

O=C(O)CCC(Nc1sc([N+](=O)[O-])cc1[N+](=O)[O-])C(=O)O (centres undefined)
inactive: [11] 95 % of control | [12] 106 % of control | [13] 92 % of control

NC(=O)C1CCN(C(=O)Nc2cc(C(F)(F)F)ccc2Cl)CC1
inactive: [17] 93 % of control | [21] 98 % of control and 102 % of control | dose: 100.0 mg/kg/injection, schedule: Q04DX002 (ip), vehicle: Klucel (hydroxypropylcellulose) (HPC) 103 % of control and 107 % of control | dose: 100.0 mg/kg/injection, schedule: Q04DX003 (ip), vehicle: Klucel (hydroxypropylcellulose) (HPC) 111 % of control | [18] 86 % of control | dose: 200.0 mg/kg/injection, schedule: Q01DX009 (ip), vehicle: Klucel (hydroxypropylcellulose) (HPC) 93 % of control and 98 % of control | [20] 100 % of control and 105 % of control | dose: 200.0 mg/kg/injection, schedule: Q04DX003 (ip), vehicle: Klucel (hydroxypropylcellulose) (HPC) 103 % of control | [19] 91 % of control | dose: 400.0 mg/kg/injection, schedule: Q01DX009 (ip), vehicle: Klucel (hydroxypropylcellulose) (HPC) 95 % of control | dose: 400.0 mg/kg/injection, schedule: Q04DX002 (ip), vehicle: Klucel (hydroxypropylcellulose) (HPC) 100 % of control | dose: 400.0 mg/kg/injection, schedule: Q04DX003 (ip), vehicle: Klucel (hydroxypropylcellulose) (HPC) 107 % of control

ClCC1CC2c3ccccc3C1c1ccccc12 (centres undefined)
inactive: [1] 94 % of control | [2] 87 % of control | [3] 90 % of control

C[N+](C)(Cc1ccccc1)C1c2ccccc2-c2ccc(Br)cc21 (centres undefined)
inactive: [4] 97 % of control | dose: 12.5 mg/kg/injection, schedule: Q04DX003 (ip), vehicle: Klucel (hydroxypropylcellulose) (HPC) 94 % of control | [5] 92 % of control | dose: 25.0 mg/kg/injection, schedule: Q04DX003 (ip), vehicle: Klucel (hydroxypropylcellulose) (HPC) 94 % of control | [6] 96 % of control | dose: 50.0 mg/kg/injection, schedule: Q04DX003 (ip), vehicle: Klucel (hydroxypropylcellulose) (HPC) 88 % of control

COc1ccc(C(=O)N/N=C/c2c(Cl)cccc2Cl)cc1
inactive: [5] 92 % of control | [6] 90 % of control | [21] 93 % of control and 104 % of control

CN(C)S(=O)(=O)Oc1ccc(S(=O)(=O)F)cc1Cl
inactive: dose: 100.0 mg/kg/injection, schedule: Q04DX002 (ip), vehicle: saline 112 % of control | dose: 200.0 mg/kg/injection, schedule: Q04DX002 (ip), vehicle: saline 104 % of control | dose: 400.0 mg/kg/injection, schedule: Q04DX002 (ip), vehicle: saline 112 % of control
